Legend:
[1] = DTA
[2] = molar heat capacity at constant pressure; settings: 101.33 kPa, Liquid, Large sample (1 g) DSC

CC[n+]1cccc(C)c1.O=S(=O)([N-]S(=O)(=O)C(F)(F)F)C(F)(F)F
Settings | Normal melting temperature [°C] | molar heat capacity at constant pressure [J/K/mol]
[1], Crystal | -1 | –
[2], 293.15 K | – | 484
[2], 294.15 K | – | 486
[2], 295.15 K | – | 487
[2], 296.15 K | – | 489
[2], 297.15 K | – | 490
[2], 298.15 K | – | 491
[2], 299.15 K | – | 493
[2], 300.15 K | – | 494
[2], 301.15 K | – | 495
[2], 302.15 K | – | 496
[2], 303.15 K | – | 497
[2], 304.15 K | – | 498
[2], 305.15 K | – | 499
[2], 306.15 K | – | 500
[2], 307.15 K | – | 501
[2], 308.15 K | – | 502
[2], 309.15 K | – | 502
[2], 310.15 K | – | 503
[2], 311.15 K | – | 504
[2], 312.15 K | – | 505
[2], 313.15 K | – | 506
[2], 314.15 K | – | 507
[2], 315.15 K | – | 507
[2], 316.15 K | – | 508
[2], 317.15 K | – | 509
[2], 318.15 K | – | 510
[2], 319.15 K | – | 510
[2], 320.15 K | – | 511
[2], 321.15 K | – | 512
[2], 322.15 K | – | 513
[2], 323.15 K | – | 514
[2], 324.15 K | – | 514
[2], 325.15 K | – | 515
[2], 326.15 K | – | 516
[2], 327.15 K | – | 517
[2], 328.15 K | – | 518
[2], 329.15 K | – | 519
[2], 330.15 K | – | 519
[2], 331.15 K | – | 520
[2], 332.15 K | – | 521
[2], 333.15 K | – | 522

CCCC[n+]1cccc(C)c1.O=S(=O)([O-])C(F)(F)F [1-butyl-3-methylpyridinium trifluoromethanesulfonate]
Settings | Normal melting temperature [°C] | molar heat capacity at constant pressure [J/K/mol]
[1], Crystal 1 | 30 | –
[1], Metastable crystal | -6 | –
[2], 323.15 K | – | 461
[2], 324.15 K | – | 462
[2], 325.15 K | – | 464
[2], 326.15 K | – | 465
[2], 327.15 K | – | 467
[2], 328.15 K | – | 468
[2], 329.15 K | – | 469
[2], 330.15 K | – | 471
[2], 331.15 K | – | 472
[2], 332.15 K | – | 473
[2], 333.15 K | – | 474
[2], 334.15 K | – | 475
[2], 335.15 K | – | 476
[2], 336.15 K | – | 478
[2], 337.15 K | – | 479
[2], 338.15 K | – | 480
[2], 339.15 K | – | 481
[2], 340.15 K | – | 482
[2], 341.15 K | – | 483
[2], 342.15 K | – | 485
[2], 343.15 K | – | 486
[2], 344.15 K | – | 487
[2], 345.15 K | – | 488
[2], 346.15 K | – | 489
[2], 347.15 K | – | 490
[2], 348.15 K | – | 491
[2], 349.15 K | – | 492
[2], 350.15 K | – | 493
[2], 351.15 K | – | 494
[2], 352.15 K | – | 495
[2], 353.15 K | – | 496

Settings | Glass transition temperature [°C]
[1] | -76

CCCC[n+]1cccc(C)c1.O=S(=O)([N-]S(=O)(=O)C(F)(F)F)C(F)(F)F
Settings | Glass transition temperature [°C]
[1] | -85

[2]
Settings | molar heat capacity at constant pressure [J/K/mol]
293.15 K | 541
294.15 K | 542
295.15 K | 544
296.15 K | 546
297.15 K | 547
298.15 K | 548
299.15 K | 550
300.15 K | 551
301.15 K | 552
302.15 K | 553
303.15 K | 554
304.15 K | 555
305.15 K | 556
306.15 K | 557
307.15 K | 558
308.15 K | 559
309.15 K | 560
310.15 K | 561
311.15 K | 562
312.15 K | 563
313.15 K | 564
314.15 K | 564
315.15 K | 565
316.15 K | 566
317.15 K | 567
318.15 K | 568
319.15 K | 569
320.15 K | 570
321.15 K | 570
322.15 K | 571
323.15 K | 572
324.15 K | 573
325.15 K | 574
326.15 K | 575
327.15 K | 576
328.15 K | 577
329.15 K | 578
330.15 K | 579
331.15 K | 580
332.15 K | 581
333.15 K | 582

CCCCn1cc[n+](C)c1.O=S(=O)([O-])C(F)(F)F [1-butyl-3-methylimidazolium trifluoromethanesulfonate]
Settings | Normal melting temperature [°C] | molar heat capacity at constant pressure [J/K/mol]
[1], Crystal | 12 | –
[2], 323.15 K | – | 456
[2], 324.15 K | – | 457
[2], 325.15 K | – | 458
[2], 326.15 K | – | 459
[2], 327.15 K | – | 460
[2], 328.15 K | – | 461
[2], 329.15 K | – | 462
[2], 330.15 K | – | 463
[2], 331.15 K | – | 464
[2], 332.15 K | – | 465
[2], 333.15 K | – | 466
[2], 334.15 K | – | 467
[2], 335.15 K | – | 467
[2], 336.15 K | – | 468
[2], 337.15 K | – | 469
[2], 338.15 K | – | 470
[2], 339.15 K | – | 471
[2], 340.15 K | – | 472
[2], 341.15 K | – | 473
[2], 342.15 K | – | 474
[2], 343.15 K | – | 475
[2], 344.15 K | – | 476
[2], 345.15 K | – | 477
[2], 346.15 K | – | 477
[2], 347.15 K | – | 478
[2], 348.15 K | – | 479
[2], 349.15 K | – | 480
[2], 350.15 K | – | 481
[2], 351.15 K | – | 481
[2], 352.15 K | – | 482
[2], 353.15 K | – | 483

CCC[n+]1cccc(C)c1.O=S(=O)([N-]S(=O)(=O)C(F)(F)F)C(F)(F)F
Settings | Glass transition temperature [°C]
[1] | -88

[2]
Settings | molar heat capacity at constant pressure [J/K/mol]
293.15 K | 510
294.15 K | 511
295.15 K | 513
296.15 K | 514
297.15 K | 516
298.15 K | 517
299.15 K | 518
300.15 K | 519
301.15 K | 520
302.15 K | 521
303.15 K | 522
304.15 K | 523
305.15 K | 524
306.15 K | 525
307.15 K | 526
308.15 K | 527
309.15 K | 528
310.15 K | 529
311.15 K | 530
312.15 K | 531
313.15 K | 532
314.15 K | 532
315.15 K | 533
316.15 K | 534
317.15 K | 535
318.15 K | 536
319.15 K | 536
320.15 K | 537
321.15 K | 538
322.15 K | 539
323.15 K | 540
324.15 K | 541
325.15 K | 541
326.15 K | 542
327.15 K | 543
328.15 K | 544
329.15 K | 545
330.15 K | 546
331.15 K | 547
332.15 K | 548
333.15 K | 549

CCCCn1cc[n+](C)c1.N#CN=C=[N-] [1-butyl-3-methylimidazolium dicyanamide]
Settings | Normal melting temperature [°C] | Triple point temperature [K] | molar heat capacity at constant pressure [J/K/mol]
[1], Crystal 1 | -6 | – | –
[1], Crystal 2 | – | 225 | –
[2], 293.15 K | – | – | 372
[2], 294.15 K | – | – | 373
[2], 295.15 K | – | – | 374
[2], 296.15 K | – | – | 375
[2], 297.15 K | – | – | 375
[2], 298.15 K | – | – | 376
[2], 299.15 K | – | – | 377
[2], 300.15 K | – | – | 377
[2], 301.15 K | – | – | 378
[2], 302.15 K | – | – | 378
[2], 303.15 K | – | – | 379
[2], 304.15 K | – | – | 379
[2], 305.15 K | – | – | 380
[2], 306.15 K | – | – | 380
[2], 307.15 K | – | – | 381
[2], 308.15 K | – | – | 381
[2], 309.15 K | – | – | 382
[2], 310.15 K | – | – | 382
[2], 311.15 K | – | – | 382
[2], 312.15 K | – | – | 383
[2], 313.15 K | – | – | 383
[2], 314.15 K | – | – | 384
[2], 315.15 K | – | – | 384
[2], 316.15 K | – | – | 384
[2], 317.15 K | – | – | 385
[2], 318.15 K | – | – | 385
[2], 319.15 K | – | – | 385
[2], 320.15 K | – | – | 386
[2], 321.15 K | – | – | 386
[2], 322.15 K | – | – | 387
[2], 323.15 K | – | – | 387
[2], 324.15 K | – | – | 388
[2], 325.15 K | – | – | 388
[2], 326.15 K | – | – | 388
[2], 327.15 K | – | – | 389
[2], 328.15 K | – | – | 389
[2], 329.15 K | – | – | 390
[2], 330.15 K | – | – | 390
[2], 331.15 K | – | – | 391
[2], 332.15 K | – | – | 391
[2], 333.15 K | – | – | 392

Settings | Glass transition temperature [°C]
[1] | -92

— the NIST ThermoML archive (doi:10.1016/j.tca.2013.05.007)
